Data set [1] concerns Puccinia recondita var. tritici. The experiment in a line: wheat leaf rust control on wheat seedlings. The data set is classed as in vivo. To be noted: 100 ppm, sprayed day before inoculation. In short, it runs like this: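 Compounds at 100 ppm (6% acetone, 250 ppm polyhydric alcohol ester surfactant in water) sprayed to run-off on wheat seedlings; inoculated next day with P. recondita spores. Kept 24 h at saturated humidity, 20°, then 7 days in growth room before rust pustule rating.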

In data set [2] the test system is Erysiphe cichoracearum. The experiment in a line: cucumber powdery mildew control on cucumber seedlings. Type of data set: in vivo. To be noted: Golovinomyces cichoracearum, 168 h, 7 days. In short, it runs like this:
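Compounds at 100 ppm in water with 6% acetone and 250 ppm TREM 014 surfactant, sprayed to run-off on cucumber seedlings. Inoculation with Erysiphe cichoracearum spores the following day; disease rated after 7 days in a growth room against untreated plants.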

Data set [3] deals with Venturia inaequalis. The experiment in a line: apple scab control on apple seedlings. Type of data set: in vivo. The following applies: Venturia inaequalis; 100 ppm. In short, it runs like this:
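Apple seedlings sprayed to run-off with 100 ppm compound suspension (6% acetone, 250 ppm TREM 014 surfactant). Inoculated next day with Venturia inaequalis spores; 24 hours at 20° in saturated humidity, then 10-12 days in growth room. Scab lesions compared with untreated plants.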

Data set [4] relates to Helminthosporium maydis. The experiment in a line: southern corn leaf blight control on corn seedlings. Type of data set: in vivo. The following applies: Bipolaris maydis, 168 h. In short, it runs like this: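 Corn seedlings were sprayed to run-off with 100 ppm compound (6% acetone, 250 ppm TREM 014), inoculated next day with H. maydis spores, then kept 24 h at 20° in saturated humidity and 7 more days in a growth room. Lesions were rated as disease score.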

Data set [5] relates to Cercospora arachidicola. The experiment in a line: peanut early leafspot control on peanut seedlings. Type of data set: in vivo. To be noted: Mycosphaerella arachidis, 336 h. An outline of the steps: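 Compounds dissolved in acetone (6% of final volume) and suspended at 100 ppm in water with 250 ppm TREM 014, sprayed to run-off on seedlings. Cercospora arachidicola inoculated next day; 24 h saturated humidity at 27°, then 14 days growth room before disease and leafspot rating.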

In data set [6] the test system is Uromyces phaseoli. The data set is described as follows: bean rust control on bean seedlings. Type of data set: in vivo. To be noted: 20 ppm. On the procedure: Compounds of the previous examples were again dissolved in acetone in an amount equal to 6% of the final volume and then suspended at a concentration of 20 ppm in purified water containing 250 ppm of the surfactant TREM 014 (polyhydric alcohol esters). This suspension was sprayed to the point of run-off on bean seedlings. The following day, the plants were inoculated with a spore suspension of the fungus Uromyces phaseoli, causal agent of bean rust, and incubated in a saturated humidity chamber at 20° for 24 hours and then in a greenhouse for 7 days. Disease ratings were then made. Treated plants from successful treatments had few or no rust pustules in contrast to untreated plants which were covered with rust pustules.

Data set [7] has as its system Monilinia fructicola. The data set is described as follows: stone fruit brown rot colony growth inhibition on canned peach halves. Type of data set: cell-based. To be noted: 120 h, dipped 3 minutes, five days, percent growth inhibition of colonies, read-out: % Control Brown Rot. From the text: Several compounds of the previous examples were again dissolved in acetone in an amount equal to 5% of the final volume and then suspended at a concentration of 100 ppm in purified water containing 700 ppm of the surfactant TREM 014 (polyhydric alcohol esters). Canned peach halves were dipped in this suspension for three minutes and then placed to air dry in sterile containers. Upon drying, the peach halves were inoculated with two pieces of Monilinia fructicola, causal agent of stone fruit brown rot, mycelium and then incubated in the sterile containers for five days. At that time the radii of the colonies' growth were measured on each peach. […] Percent disease contol (percent growth inhibition of colonies on treated peaches as compared to that of colonies on untreated peaches) is expressed in the table below.

Data set [8] deals with Rhizoctonia solani. The experiment in a line: rice sheath blight control on rice seedlings. The following applies: Rhizoctonia solani, 168 h, 7 days. The data set is classed as in vivo. An outline of the steps: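 Rice seedlings sprayed to run-off with 100 ppm compound suspension (6% acetone, 250 ppm surfactant), then inoculated next day with bran/mycelium of Rhizoctonia solani. After 7 days in a growth room, sheath blight disease was rated.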

In data set [9] the test system is Pyricularia oryzae. The experiment in a line: whole plant or invertebrate. The data set is classed as in vivo. To be noted: 168 h, read-out: % Control of Rice Blast.
In data set [10] the test system is Phytophthora infestans. The experiment in a line: whole plant or invertebrate. The data set is classed as in vivo. The following applies: Phytophthora infestans, in Solanum lycopersicum, 168 h, read-out: % Control of Tomato Late Blight.
Data set [11] has as its system 5 Phytophthora species. Type of data set: cell-based. The following applies: 200.0 ppm in agar, 22° C., 6 days; controlled = radial growth 1 mm or less.
Data set [12] has as its system Pythium aphanadermatum. The data set is described as follows: Pythium control on coated cotton seeds. The data set is classed as in vivo. To be noted: 168 h, 2 gm/kg seed, 1 week. In short, it runs like this:
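Cotton seeds coated with formulated compound at 2 gm/kg seed, air dried, and planted in soil amended with Pythium aphanadermatum, sand and corn meal. Held 1 week at room temperature before disease rating.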

Data set [13] relates to Pythium aphanadermatum. The data set is described as follows: Pythium control on coated corn seeds. The data set is classed as in vivo. The following applies: 504 h, 2 gm/kg seed, 49° F. 2 weeks then 70° F. 1 week. In short, it runs like this:
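Formulated compounds were coated onto corn seeds at 2 gm/kg seed, air-dried and sown in soil infested with Pythium aphanadermatum at a rate lethal to most untreated seeds. Seeds were held 2 weeks at 49° F, then 1 week at 70° F, before disease rating.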

The subject of data set [14] is Erysiphe graminis. The experiment in a line: barley powdery mildew control on barley seedlings. To be noted: Blumeria graminis, 168 h; 100 ppm, 7 days. The data set is classed as in vivo. On the procedure: Several compounds of the previous examples were again dissolved in acetone in an amount equal to 6% of the final volume and then suspended at a concentration of 100 ppm in purified water containing 250 ppm of the surfactant TREM 014 (polyhydric alcohol esters). This suspension was sprayed to the point of run-off on barley seedlings. The following day, the plants were inoculated with a spore suspension of the fungus Erysiphe graminis, causal agent of barley powdery mildew, and incubated in a growth room for 7 days. Disease ratings were then made. Treated plants had little or no powdery mildew in contrast to untreated plants which were covered with powdery mildew.

The test system of data set [15] is cucumber seedlings. The data set is described as follows: phytotoxicity on cucumber seedlings. The data set is classed as in vivo. Set-up: key: G: growth reduction; H: hormonal effects. The following applies: 100 ppm.

Turning to `C[Si](C)(Cn1ccnc1)c1ccc(-c2ccccc2)cc1` [(1,1'-Biphenyl-4-yl)dimethyl(1H-imidazol-1-ylmethyl)silane], the pest or weed control at 100 ppm worked out at 100% in data set [1]; 100% in data set [2]; 80% in data set [3]; 90% in [4]; 100% in [5]; 0% in [8]. Also, the pest or weed control at 100 ppm is 0% in [9] and 50% in [10]. Moreover, the “% Control Bean Rust” value in data set [6] amounted to 100%. For the same compound, the inhibition of growth at 100 ppm in data set [7] came to 83%. Further, in data set [11], the “No. of 5 Phytophthora species controlled in vitro” value was determined as 3. In addition, the pest or weed control at 2000 mg/kg in [12] turned out to be 18%; in data set [13], 32%.
Consider `C[Si](C)(Cn1ccnc1)c1ccc(Cl)cc1Cl` [(2,4-Dichlorophenyl)dimethyl(1H-imidazol-1-ylmethyl)silane], for which the pest or weed control at 100 ppm in data set [1] came out at 90%; in [2] it was 100%; in data set [14], 100%; in data set [3], 100%; in data set [4], 70%; in data set [5], 100%. Further, the pest or weed control at 100 ppm in data set [8], in [9] and in data set [10] was 0% each time. The “% Control Bean Rust” value in data set [6] was found to be 83%. Further, in data set [7], the inhibition of growth at 100 ppm was found to be 100%. In data set [11], the “No. of 5 Phytophthora species controlled in vitro” value is given as 5. Also, in data set [15], the “Phytotoxicity (growth reduction or hormonal effects)” value is on record as “H”.

The values are drawn from US4496551A (priority 1983, dated 1985).
